By IC50 is commonly meant the point on the concentration scale where inhibition reaches its midpoint. Higher therefore signals weaker potency in that assay.

This is an account of results in patent US20130281528A1, “METHOD OF TREATING GASTRIC CANCER” (Niiki Pharma Acquisition Corp.2, priority 2010, published 2013).

In the experiment the test system is human gastric cancer cell line NCI-N87. Nature of the experiment: ATCC's MTT Cell Proliferation Assay. Format: cell-based. The following applies: 72 hours post-treatment, concentration that inhibits cell growth by 50%. Here is the method: To test the activities of sodium trans-[tetrachlorobis(1H-indazole)ruthenate(III)], ATCC's MTT Cell Proliferation Assay® was performed using human gastric cancer cell line NCI-N87 (differentiated carcinoma). Stock cultures were allowed to grow to 70-80% confluence for this study. The anti-proliferative activity of sodium trans-[tetrachlorobis(1H-indazole)ruthenate(III)], against the indicated cell line was evaluated in vitro using the ATCC's MTT Cell Proliferation Assay (Catalog No. 30-1010K). NCI-N87 was grown using RPMI1640 (Cell Gro 10-040-CV), with 1% of 1M HEPES, 1% sodium pyruvate, 1% of 45% glucose solution, 10% of heat-inactivated FBS and 1% of pen/strep/glutamine. […] The plates were left overnight at room temperature in the dark and was read on a plate reader using SoftMax® Pro (version 5.2, Molecular Devices).
The absorbance data was analyzed as follows: Absorbance values were converted to Percent of Control and plotted against test agent concentrations for IC50 calculations using SoftMax® Pro (version 5.2, Molecular Devices). […] Percent of Control values were calculated by dividing the absorbance values for each test well by the No Drug Control average (column 11 values; cells+vehicle control) and multiplying by 100. […]

Regarding `[Cl][Ru-]([Cl])([Cl])[Cl].[Na+].c1ccc2[nH]ncc2c1.c1ccc2[nH]ncc2c1` [sodium trans-[tetrachlorobis(1H-indazole)ruthenate(III)]], the IC50 was found to be 3.73 µM.
